Reference: US6939879B2, “Use of R (+)-α-(2,3-dimethoxyphenyl)-1-[2-(4-fluorophenyl)ethyl]-4-piperidinemethanol for the treatment of substance induced insomnia” (Aventis Pharmaceuticals Inc., priority 1998, dated 2005)

Legend:
[1] = test system: anaesthetized newborn Sprague Dawley rats; experiment: Occurrence of obstructive apnea induced by L-Tryptophan and Pargyline injection; assay type: in vivo, rat
Method: (§1) Intraperitoneal application of L-Tryptophan (10 mg/kg) and Pargyline (50 mg/kg) to anaesthetized newborn rats depressed the amplitude of the inspiratory discharges of the genioglossal muscle and induced obstructive apneas (OA).
(§2) Experiments were carried out on newborn Sprague Dawley rats from Iffa Credo breeding center. The animals were anaesthetized by intraperitoneal injection of low doses of sodium pentobarbitone (7-10 mg/kg), kept lying (dorsal cubitus) on a warming blanket and were spontaneously ventilating.
(§3) The EMG activity of the genioglossal muscles and the diaphragm were recorded with fine insulated wires (bipolar recordings) inserted within the muscles, filtered (100-3,000 Hz), amplified (×5-10,000) and integrated (time constant 50 ms). The rib cage movements were recorded via a captor gently touching the lower ribs and/or the abdominal wall. The air flow changes resulting from the respiratory chest movements were recorded via a facial mask and a highly sensitive pressure recorder.

healthy subjects [2] = experiment: Drowsiness in healthy subjects after oral doses (Example 4C); assay type: in vivo, human; settings: for Drowsiness, % of subjects / Drowsiness, n of subjects: n = 4; for rating of the drowsiness: oral
Description: The following data were reported.

healthy subjects [3] = experiment: Single oral dose in healthy subjects, sedation (Example 4A); assay type: in vivo, human
Method: Forty percent of the subjects receiving the 20 mg dose (2 out of 5) and sixty percent of the subjects receiving the 10 mg dose (3 out of 5) experienced mild to moderate sedation. […]

[4] = test system: patients diagnosed with schizophrenia; experiment: Insomnia and somnolence reported by patients with schizophrenia, twice daily oral dosing (Example 4B); assay type: in vivo, human
Method: Forty percent of the subjects receiving the 20 mg dose (2 out of 5) and sixty percent of the subjects receiving the 10 mg dose (3 out of 5) experienced mild to moderate sedation. […] The following data were reported.

[5] = test system: anaesthetized newborn Sprague Dawley rats; experiment: Depression of genioglossal EMG induced by L-Tryptophan and Pargyline; assay type: in vivo, rat; settings: for prevention of depression of the amplitude of GG inspiratory discharges by L-Trp+Prg: five newborn rats
Method: as §1, §2, §3
Then, the animal received an intraperitoneal injection of L-Tryptophan plus Pargyline (“L-Trp+Parg”) 10 mg/kg and 50 mg/kg, respectively, and the changes in EMG amplitudes were checked every 10 minutes and were expressed as % of control values.

healthy subjects [6] = experiment: Drowsiness in healthy subjects, 3-72 mg doses (Example 4D); assay type: in vivo, human
Method: D) In healthy subjects, the COMPOUND was administered in 3 mg (n=4), 9 mg (n=4), 18 mg (n=4), 36 mg (n=4) and 72 mg (n=4) doses along with the placebo (n=5) wherein “n” is the number of subjects.

[7] = pre-treatment 0.1 mg/kg, L-Trp+Parg 10 min later
[8] = pre-treatment 1 mg/kg, ten rats
[9] = pre-treatment 0.1 mg/kg intraperitoneal, ten newborn rats

For `COc1cccc([C@H](O)C2CCN(CCc3ccc(F)cc3)CC2)c1OC` [COMPOUND, R-(+)-α-(2,3-Dimethoxyphenyl)-1-[2-(4-fluorophenyl)ethyl]-4-piperidinemethanol], the “animals that eventually died of respiratory distress” value [1, 7] was 4 of the 10, the “newborn rats in which L-Trp+Parg injection induced OAs” value [1, 7] was 9 of 10 and the “newborn rats that did not present short lasting OAs at all” value ([1]; pre-treatment 1 mg/kg) was “Five out of ten”. For the same compound, the “newborn rats which displayed OAs” value ([1]; pre-treatment 1 mg/kg) was 5 of 10, the “animals with infrequent OAs (less than 5 short lasting OAs in 60 minutes)” value ([1]; pre-treatment 1 mg/kg, among the 5 of 10 with OAs) was 2 and the “peak frequency of occurrence of short lasting OAs (mean curve)” value ([1]; pre-treatment 1 mg/kg, between 20-40 min after the injection, significantly less than in the 0.1 mg/kg sample) was 4 OAs per 10 minute period. For the same compound, the “newborn rats with long lasting OAs” value [1, 8] was “one”, the “survival to L-Trp+Parg injection” value [1, 8] was “all animals survived” and the “treated rats with a total of less than 3 short lasting OAs” value ([1]; pre-treatment 3 mg/kg) was 3 of 10. For the same compound, the “treated rats with frequent short lasting OAs” value ([1]; pre-treatment 3 mg/kg) was 2 of 10, the “treated rats with no short lasting OAs” value ([1]; pre-treatment 3 mg/kg) was 5 of 10 and the “survival to L-Trp+Parg injection” value ([1]; pre-treatment 3 mg/kg, ten rats) was “all survived”. The “Drowsiness, % of subjects” value (healthy subjects [2]; 9 mg oral) was 50%, the “Drowsiness, n of subjects” value (healthy subjects [2]; 9 mg oral) was “n = 2” and the “Drowsiness, % of subjects” value (healthy subjects [2]; 18 mg oral) was 100%. For the same compound, the “Drowsiness, n of subjects” value (healthy subjects [2]; 18 mg oral) was “n = 4”, the “Drowsiness, % of subjects” value (healthy subjects [2]; 36 mg oral) was 100% and the “Drowsiness, n of subjects” value (healthy subjects [2]; 36 mg oral) was “n = 4”. For the same compound, the “rating of the drowsiness” value (healthy subjects [2]; 72 mg and above) was “moderate to severe”, the “Drowsiness, % of subjects” value (healthy subjects [2]; 72 mg oral) was 75% and the “Drowsiness, n of subjects” value (healthy subjects [2]; 72 mg oral) was “n = 3”. For the same compound, the “Drowsiness, % of subjects” value (healthy subjects [2]; 108 mg oral) was 100%, the “Drowsiness, n of subjects” value (healthy subjects [2]; 108 mg oral) was “n = 4” and the “Drowsiness, % of subjects” value (healthy subjects [2]; 138 mg oral) was 100%. For the same compound, the “Drowsiness, n of subjects” value (healthy subjects [2]; 138 mg oral) was “n = 4”, the “rating of the drowsiness” value (healthy subjects [2]; doses below 72 mg) was “mild or moderate” and the “subjects who experienced mild to moderate sedation” value (healthy subjects [3]; single 10 mg oral dose) was 3 out of 5. For the same compound, the “subjects who experienced mild to moderate sedation” value (healthy subjects [3]; single 20 mg oral dose) was 2 out of 5, the “Insomnia, % of subjects” value ([4]; 10 mg (5 mg twice daily) oral) was “N = 0; 0%” and the “Insomnia, N (number of subjects that reported the effect)” value (shortened to “Insomnia, N”) ([4]; 10 mg (5 mg twice daily) oral) was “N = 0; 0%”. The “Somnolence, % of subjects” value ([4]; 10 mg (5 mg twice daily) oral) was 20%, the “Somnolence, N (number of subjects that reported the effect)” value (“Somnolence, N” for short) ([4]; 10 mg (5 mg twice daily) oral) was 3 and the “Insomnia, % of subjects” value ([4]; 20 mg (10 mg twice daily) oral) was 21.4%. The “Insomnia, N” value ([4]; 20 mg (10 mg twice daily) oral) was “N = 3:”, the “Somnolence, % of subjects” value ([4]; 20 mg (10 mg twice daily) oral) was 15.4% and the “Somnolence, N” value ([4]; 20 mg (10 mg twice daily) oral) was “N = 1;”. For the same compound, the “Insomnia, % of subjects” value ([4]; 40 mg (20 mg twice daily) oral) was 23.1%, the “Insomnia, N” value ([4]; 40 mg (20 mg twice daily) oral) was “N = 3;” and the “Somnolence, % of subjects” value ([4]; 40 mg (20 mg twice daily) oral) was 15.4%. The “Somnolence, N” value ([4]; 40 mg (20 mg twice daily) oral) was “N = 2;”, the “depression of the mean GG discharge after L-Trp+Parg injection” value [5, 9] was 30-50% and the “prevention of depression of genioglossal (GG) discharge induced by L-Trp+Parg” value (from here on “prevention of depression of genioglossal”) [5, 9] was “did not prevent”. For the same compound, the “prevention of depression of genioglossal” value ([5]; pre-treatment 1 mg/kg intraperitoneal, ten newborn rats) was “efficient in preventing the GG depression”, the “prevention of depression of genioglossal” value ([5]; pre-treatment 3 mg/kg intraperitoneal, ten newborn rats) was “confirmed the efficiency” and the drowsiness reported (healthy subjects [6]; 3 mg, 9 mg, 18 mg, 36 mg doses (n=4 each)) was “Only the group receiving the 72 mg dose reported drowsiness”. The “number of subjects that reported drowsiness” value (healthy subjects [6]; 72 mg dose (n=4)) was 3.
With `Cn1c(=O)c2[nH]cnc2n(C)c1=O` [theophylline, reference compound] the “prevention of induction of OAs after L-Trp+Prg injection” value ([1]; pre-treatment 10 mg/kg) was “not prevented”, the “prevention of induction of OAs after L-Trp+Prg injection” value ([1]; pre-treatment 30 mg/kg) was “not prevented” and the “prevention of depression of the amplitude of GG inspiratory discharges by L-Trp+Prg” value ([5]; pre-treatment 10 mg/kg) was “not prevented”. The “prevention of depression of the amplitude of GG inspiratory discharges by L-Trp+Prg” value ([5]; pre-treatment 30 mg/kg) was “not prevented”.
